What was measured:
HeLa = assay: cells; details: Homo sapiens
Description: Antiproliferative activity against human HeLa cells assessed as reduction in cell viability

[1] = target: T1, Protein deacetylase HDAC6 (Homo sapiens, UniProt Q9UBN7); assay: Inhibition of HDAC6 (unknown origin)
T1 sequence (Q9UBN7 whole entry): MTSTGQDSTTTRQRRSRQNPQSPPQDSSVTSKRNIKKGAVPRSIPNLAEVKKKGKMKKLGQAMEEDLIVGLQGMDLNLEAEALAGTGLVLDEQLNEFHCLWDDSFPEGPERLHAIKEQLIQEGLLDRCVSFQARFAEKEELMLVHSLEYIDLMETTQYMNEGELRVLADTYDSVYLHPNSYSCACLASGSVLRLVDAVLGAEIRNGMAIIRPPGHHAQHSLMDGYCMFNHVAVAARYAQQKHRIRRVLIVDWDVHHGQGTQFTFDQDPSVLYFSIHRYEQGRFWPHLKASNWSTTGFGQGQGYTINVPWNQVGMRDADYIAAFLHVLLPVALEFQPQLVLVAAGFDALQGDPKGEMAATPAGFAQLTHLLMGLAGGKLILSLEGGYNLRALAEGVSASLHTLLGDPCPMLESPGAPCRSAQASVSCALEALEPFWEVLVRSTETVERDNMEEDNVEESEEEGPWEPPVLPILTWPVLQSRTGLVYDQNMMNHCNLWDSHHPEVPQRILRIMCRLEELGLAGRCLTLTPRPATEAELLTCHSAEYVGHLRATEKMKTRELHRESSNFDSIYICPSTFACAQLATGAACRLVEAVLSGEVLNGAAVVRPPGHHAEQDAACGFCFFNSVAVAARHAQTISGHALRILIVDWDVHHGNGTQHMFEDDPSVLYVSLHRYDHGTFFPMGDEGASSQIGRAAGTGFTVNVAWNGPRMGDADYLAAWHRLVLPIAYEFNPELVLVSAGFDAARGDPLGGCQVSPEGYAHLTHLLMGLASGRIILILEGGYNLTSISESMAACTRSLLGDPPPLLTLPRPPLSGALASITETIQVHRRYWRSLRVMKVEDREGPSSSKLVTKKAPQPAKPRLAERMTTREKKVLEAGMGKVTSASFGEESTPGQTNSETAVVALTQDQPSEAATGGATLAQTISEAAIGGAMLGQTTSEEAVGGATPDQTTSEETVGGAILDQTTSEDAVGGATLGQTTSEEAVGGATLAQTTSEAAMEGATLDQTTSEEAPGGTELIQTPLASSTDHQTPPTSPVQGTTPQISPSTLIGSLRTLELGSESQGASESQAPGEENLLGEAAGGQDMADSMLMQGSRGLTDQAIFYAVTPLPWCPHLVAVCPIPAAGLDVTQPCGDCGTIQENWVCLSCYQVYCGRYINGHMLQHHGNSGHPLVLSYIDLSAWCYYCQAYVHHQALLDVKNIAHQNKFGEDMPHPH

Leishmania infantum = assay: Antileishmanial activity against Leishmania infantum promastigote assessed as reduction in parasite growth after 72 hrs by MTT assay; type: functional, organism-based
[2] = Cytotoxicity against African green monkey Vero cells assessed as reduction in cell viability incubated for 72 hrs by MTT assay; type: toxicity, cell-based; details: chlorocebus sabaeus
[3] = Cytotoxicity against human THP-1 cells assessed as reduction in cell viability; type: toxicity, cell-based
Trypanosoma cruzi = assay: Antitrypanosomal activity against Trypanosoma cruzi Y strain trypomastigotes […] in African green monkey Vero cells assessed as inhibition of parasite growth incubated for 24 hrs by Neubauer chamber based analysis; type: functional, organism-based
[4] = target: Sigma intracellular receptor 2 (Homo sapiens, UniProt Q5BJF2); assay: Binding affinity to TMEM97 (unknown origin) assessed as inhibition constant
Histone deacetylase 1 = Histone deacetylase 1 (Homo sapiens, UniProt Q13547); assay: Inhibition of HDAC1 (unknown origin)
Histone deacetylase 11 = target: T2, Histone deacetylase 11 (Homo sapiens, UniProt Q96DB2); assay: Inhibition of HDAC11 (unknown origin)
T2 sequence (Q96DB2 whole entry): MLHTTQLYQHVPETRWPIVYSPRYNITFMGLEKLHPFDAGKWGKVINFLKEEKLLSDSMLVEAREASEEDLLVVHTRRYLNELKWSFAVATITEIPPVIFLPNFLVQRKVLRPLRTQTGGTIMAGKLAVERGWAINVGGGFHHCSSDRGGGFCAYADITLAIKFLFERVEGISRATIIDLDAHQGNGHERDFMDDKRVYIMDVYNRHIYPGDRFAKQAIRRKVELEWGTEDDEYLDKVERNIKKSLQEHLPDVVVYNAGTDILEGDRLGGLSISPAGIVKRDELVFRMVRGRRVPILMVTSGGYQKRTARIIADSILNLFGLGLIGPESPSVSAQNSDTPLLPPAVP

[5] = target: T3, Polyamine deacetylase HDAC10 (Homo sapiens, UniProt Q969S8); assay: Inhibition of HDAC10 (unknown origin)
T3 sequence (Q969S8 whole entry): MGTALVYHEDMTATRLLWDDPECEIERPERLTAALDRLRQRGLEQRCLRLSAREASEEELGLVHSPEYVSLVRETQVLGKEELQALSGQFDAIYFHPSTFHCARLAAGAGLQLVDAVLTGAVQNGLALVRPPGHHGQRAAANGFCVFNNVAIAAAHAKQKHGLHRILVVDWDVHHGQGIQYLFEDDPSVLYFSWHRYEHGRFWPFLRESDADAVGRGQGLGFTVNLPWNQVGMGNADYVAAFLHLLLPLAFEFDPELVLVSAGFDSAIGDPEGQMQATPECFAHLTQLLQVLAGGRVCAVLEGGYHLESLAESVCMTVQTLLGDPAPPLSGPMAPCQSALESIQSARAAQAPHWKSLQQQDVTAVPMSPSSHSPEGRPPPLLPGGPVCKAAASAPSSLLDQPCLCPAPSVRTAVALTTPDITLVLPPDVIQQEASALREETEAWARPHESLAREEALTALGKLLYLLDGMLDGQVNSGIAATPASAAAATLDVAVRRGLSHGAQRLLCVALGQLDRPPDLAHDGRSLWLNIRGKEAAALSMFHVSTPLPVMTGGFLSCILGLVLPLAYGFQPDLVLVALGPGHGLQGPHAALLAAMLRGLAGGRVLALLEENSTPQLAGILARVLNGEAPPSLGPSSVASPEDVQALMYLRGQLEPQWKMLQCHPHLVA

Histone deacetylase 4 = Histone deacetylase 4 (Homo sapiens, UniProt P56524); assay: Inhibition of HDAC4 (unknown origin)
Histone deacetylase 5 = Histone deacetylase 5 (Homo sapiens, UniProt Q9UQL6); assay: Inhibition of HDAC5 (unknown origin)
Histone deacetylase 8 = target: T4, Histone deacetylase 8 (Homo sapiens, UniProt Q9BY41); assay: Inhibition of HDAC8 (unknown origin)
T4 sequence (Q9BY41 whole entry): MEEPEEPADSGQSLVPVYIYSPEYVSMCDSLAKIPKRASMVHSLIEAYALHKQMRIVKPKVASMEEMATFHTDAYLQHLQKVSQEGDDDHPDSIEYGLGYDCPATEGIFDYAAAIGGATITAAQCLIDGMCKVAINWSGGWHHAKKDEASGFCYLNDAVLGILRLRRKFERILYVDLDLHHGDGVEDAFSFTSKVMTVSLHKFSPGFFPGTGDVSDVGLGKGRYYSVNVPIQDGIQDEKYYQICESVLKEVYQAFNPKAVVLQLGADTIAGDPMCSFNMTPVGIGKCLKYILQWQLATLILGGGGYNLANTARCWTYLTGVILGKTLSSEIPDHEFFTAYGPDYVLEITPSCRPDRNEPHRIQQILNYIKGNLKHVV

Histone deacetylase 3 = Histone deacetylase 3 (Homo sapiens, UniProt O15379); assay: Inhibition of HDAC3 (unknown origin)
Histone deacetylase 9 = Histone deacetylase 9 (Homo sapiens, UniProt Q9UKV0); assay: Inhibition of HDAC9 (unknown origin)
Sequence of Histone deacetylase 9 (Q9UKV0 whole entry): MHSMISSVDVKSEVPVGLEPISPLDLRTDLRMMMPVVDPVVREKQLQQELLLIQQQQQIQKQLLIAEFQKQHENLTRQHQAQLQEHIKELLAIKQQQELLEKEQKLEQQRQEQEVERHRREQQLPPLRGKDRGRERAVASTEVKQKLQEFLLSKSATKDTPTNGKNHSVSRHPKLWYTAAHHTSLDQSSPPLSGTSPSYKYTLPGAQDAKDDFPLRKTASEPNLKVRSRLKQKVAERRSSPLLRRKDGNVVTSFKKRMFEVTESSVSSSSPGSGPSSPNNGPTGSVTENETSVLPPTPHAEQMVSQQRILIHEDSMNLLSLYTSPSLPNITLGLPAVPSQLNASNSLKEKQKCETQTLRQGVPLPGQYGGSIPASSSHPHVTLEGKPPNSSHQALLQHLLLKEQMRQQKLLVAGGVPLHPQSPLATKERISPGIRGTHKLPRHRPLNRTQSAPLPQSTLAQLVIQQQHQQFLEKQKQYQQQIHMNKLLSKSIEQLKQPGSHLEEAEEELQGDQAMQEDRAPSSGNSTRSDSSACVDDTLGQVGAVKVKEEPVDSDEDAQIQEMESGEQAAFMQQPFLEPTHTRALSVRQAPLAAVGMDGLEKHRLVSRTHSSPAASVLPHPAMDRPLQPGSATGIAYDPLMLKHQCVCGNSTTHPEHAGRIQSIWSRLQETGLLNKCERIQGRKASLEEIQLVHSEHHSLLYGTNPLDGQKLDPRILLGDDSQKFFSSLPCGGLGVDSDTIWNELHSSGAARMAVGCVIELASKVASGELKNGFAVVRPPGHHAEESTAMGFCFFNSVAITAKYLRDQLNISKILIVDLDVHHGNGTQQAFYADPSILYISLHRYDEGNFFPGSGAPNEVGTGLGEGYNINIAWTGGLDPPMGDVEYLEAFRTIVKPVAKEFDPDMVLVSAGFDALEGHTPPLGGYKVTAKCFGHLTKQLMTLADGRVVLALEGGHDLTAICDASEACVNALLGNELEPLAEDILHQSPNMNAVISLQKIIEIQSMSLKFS

Sequence of Sigma intracellular receptor 2 (Q5BJF2 whole entry): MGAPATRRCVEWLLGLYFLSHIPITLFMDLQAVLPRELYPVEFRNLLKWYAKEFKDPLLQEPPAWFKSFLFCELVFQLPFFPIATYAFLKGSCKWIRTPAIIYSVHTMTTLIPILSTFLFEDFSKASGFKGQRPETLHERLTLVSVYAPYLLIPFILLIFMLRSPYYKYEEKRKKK
Sequence of Histone deacetylase 5 (Q9UQL6 whole entry): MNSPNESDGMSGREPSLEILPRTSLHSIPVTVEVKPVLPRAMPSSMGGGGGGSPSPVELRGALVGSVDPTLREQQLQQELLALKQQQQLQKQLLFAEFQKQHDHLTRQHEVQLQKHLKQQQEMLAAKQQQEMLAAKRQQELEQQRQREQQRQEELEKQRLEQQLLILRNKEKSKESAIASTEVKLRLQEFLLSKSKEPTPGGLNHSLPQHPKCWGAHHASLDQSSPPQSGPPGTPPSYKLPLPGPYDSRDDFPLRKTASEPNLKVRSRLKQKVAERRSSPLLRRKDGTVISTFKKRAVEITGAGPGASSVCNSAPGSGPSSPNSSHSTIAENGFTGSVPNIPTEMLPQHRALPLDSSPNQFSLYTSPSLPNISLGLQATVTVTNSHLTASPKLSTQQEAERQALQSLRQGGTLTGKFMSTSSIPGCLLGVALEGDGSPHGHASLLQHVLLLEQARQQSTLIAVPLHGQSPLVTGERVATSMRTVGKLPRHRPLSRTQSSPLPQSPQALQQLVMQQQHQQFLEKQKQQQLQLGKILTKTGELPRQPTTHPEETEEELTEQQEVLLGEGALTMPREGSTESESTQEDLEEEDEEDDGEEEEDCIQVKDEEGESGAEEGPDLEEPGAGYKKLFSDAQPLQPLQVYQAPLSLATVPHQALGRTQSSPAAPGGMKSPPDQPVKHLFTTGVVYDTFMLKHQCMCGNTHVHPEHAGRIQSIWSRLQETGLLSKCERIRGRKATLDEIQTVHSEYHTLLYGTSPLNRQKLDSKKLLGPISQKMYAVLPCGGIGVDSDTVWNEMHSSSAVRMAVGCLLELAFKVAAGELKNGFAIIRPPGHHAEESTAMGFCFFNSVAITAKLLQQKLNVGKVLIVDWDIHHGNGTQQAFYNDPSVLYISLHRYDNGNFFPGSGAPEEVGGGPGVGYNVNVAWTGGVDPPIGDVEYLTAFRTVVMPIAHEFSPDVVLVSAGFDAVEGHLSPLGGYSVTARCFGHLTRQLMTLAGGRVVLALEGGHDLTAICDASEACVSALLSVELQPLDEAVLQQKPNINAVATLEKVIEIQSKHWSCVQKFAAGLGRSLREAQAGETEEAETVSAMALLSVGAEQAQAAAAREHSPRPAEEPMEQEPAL
Sequence of Histone deacetylase 4 (P56524 whole entry): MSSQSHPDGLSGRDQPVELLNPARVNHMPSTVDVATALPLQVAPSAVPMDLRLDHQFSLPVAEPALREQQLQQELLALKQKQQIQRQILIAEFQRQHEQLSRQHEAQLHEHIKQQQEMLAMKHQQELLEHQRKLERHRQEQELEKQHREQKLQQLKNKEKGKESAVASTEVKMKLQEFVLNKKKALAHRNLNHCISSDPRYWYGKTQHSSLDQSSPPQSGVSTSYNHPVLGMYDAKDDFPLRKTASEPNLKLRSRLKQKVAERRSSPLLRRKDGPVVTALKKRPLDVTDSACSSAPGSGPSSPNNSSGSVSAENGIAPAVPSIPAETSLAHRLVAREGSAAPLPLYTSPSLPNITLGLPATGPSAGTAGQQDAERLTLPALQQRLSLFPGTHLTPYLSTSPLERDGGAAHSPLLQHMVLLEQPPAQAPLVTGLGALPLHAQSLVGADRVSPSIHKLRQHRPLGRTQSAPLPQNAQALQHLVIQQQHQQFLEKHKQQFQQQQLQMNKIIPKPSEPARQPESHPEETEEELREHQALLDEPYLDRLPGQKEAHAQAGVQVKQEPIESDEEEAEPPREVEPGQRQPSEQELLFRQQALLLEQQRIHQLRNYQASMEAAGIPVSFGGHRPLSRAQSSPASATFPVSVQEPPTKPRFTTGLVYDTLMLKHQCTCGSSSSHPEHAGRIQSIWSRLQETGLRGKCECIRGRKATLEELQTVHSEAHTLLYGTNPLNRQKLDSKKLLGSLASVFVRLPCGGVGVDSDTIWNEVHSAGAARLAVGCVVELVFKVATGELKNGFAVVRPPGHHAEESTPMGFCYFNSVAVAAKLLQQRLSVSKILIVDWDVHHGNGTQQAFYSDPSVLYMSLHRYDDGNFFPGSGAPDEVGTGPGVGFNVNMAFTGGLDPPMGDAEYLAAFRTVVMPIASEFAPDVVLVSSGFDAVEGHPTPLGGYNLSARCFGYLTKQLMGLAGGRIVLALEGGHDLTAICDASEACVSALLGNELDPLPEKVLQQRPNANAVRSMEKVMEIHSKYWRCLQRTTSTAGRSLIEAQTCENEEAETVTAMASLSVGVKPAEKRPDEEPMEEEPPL
Sequence of Histone deacetylase 3 (O15379 whole entry): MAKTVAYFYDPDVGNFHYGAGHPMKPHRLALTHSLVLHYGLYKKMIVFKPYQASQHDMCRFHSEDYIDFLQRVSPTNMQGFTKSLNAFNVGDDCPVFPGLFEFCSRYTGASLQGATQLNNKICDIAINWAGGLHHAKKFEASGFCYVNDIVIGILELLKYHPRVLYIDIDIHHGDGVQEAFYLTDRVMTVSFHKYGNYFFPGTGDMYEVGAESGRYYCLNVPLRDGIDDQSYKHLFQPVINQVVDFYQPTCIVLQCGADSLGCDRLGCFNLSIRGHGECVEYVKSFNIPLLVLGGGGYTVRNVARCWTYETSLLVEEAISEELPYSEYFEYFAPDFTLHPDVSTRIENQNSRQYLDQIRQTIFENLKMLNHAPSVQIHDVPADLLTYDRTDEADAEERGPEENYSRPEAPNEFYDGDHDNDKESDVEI
Sequence of Histone deacetylase 1 (Q13547 whole entry): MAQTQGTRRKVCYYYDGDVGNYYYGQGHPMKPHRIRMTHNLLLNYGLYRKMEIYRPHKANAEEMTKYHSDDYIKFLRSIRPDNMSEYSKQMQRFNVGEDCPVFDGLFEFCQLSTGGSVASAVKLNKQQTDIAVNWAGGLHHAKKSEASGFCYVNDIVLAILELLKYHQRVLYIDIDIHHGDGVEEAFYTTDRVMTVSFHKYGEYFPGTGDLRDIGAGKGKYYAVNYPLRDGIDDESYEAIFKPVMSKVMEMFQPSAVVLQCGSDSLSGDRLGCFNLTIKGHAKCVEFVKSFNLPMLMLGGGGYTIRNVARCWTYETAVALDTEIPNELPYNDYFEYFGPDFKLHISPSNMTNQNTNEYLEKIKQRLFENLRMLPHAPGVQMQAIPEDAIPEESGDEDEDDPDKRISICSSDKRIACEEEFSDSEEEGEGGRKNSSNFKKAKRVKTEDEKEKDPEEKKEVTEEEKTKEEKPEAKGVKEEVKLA

Row | Structure (SMILES) | IC50 (Leishmania infantum) [µM] | CC50 at 72 h [2] [µM] | CC50 [3] [µM] | IC50 (Trypanosoma cruzi) [µM] | further results
1 | O=C1Cc2cnn(-c3cc(Cl)cc(Cl)c3)c2-c2ccccc2N1 |  |  |  |  | IC50 (HeLa): 1.32 µM
2 | O=C(NO)c1ccc(CN2c3ccccc3S(=O)(=O)C[C@H]3CCCC[C@H]32)cc1 |  |  |  |  | IC50 [1]: 0.1 µM
3 | O=C1Cc2cnn(-c3cccc(Br)c3)c2-c2ccccc2N1 |  |  |  |  | IC50 (HeLa): 1.32 µM
4 | COc1cccc([C@@H]2C[C@H]3Cc4cc(Br)c5ccccc5c4N2O3)c1 | 40.1 | > 1520 | > 1520 | 11.9 | 
5 | O[C@@H]1Cc2cc(Br)c3ccccc3c2N[C@H](c2cccc(Cl)c2Cl)C1 | 11.8 | 40.1 | 59.8 | 3.3 | 
6 | Brc1ccc([C@@H]2C[C@H]3Cc4ccc5ccccc5c4N2O3)s1 | 21.6 | > 809 | > 809 | 8.3 | 
7 | FC(F)(F)c1ccc(-c2ccc3c(c2)C2CC3CCN2C2CCCC2)cc1 (centres undefined) |  |  |  |  | Ki [4]: 0.061 µM
8 | OCCCN1CCC2CC1c1cc(-c3ccc(C(F)(F)F)cc3)ccc12 (centres undefined) |  |  |  |  | Ki [4]: 0.046 µM
9 | Cc1ccccc1[C@@H]1C[C@H](O)Cc2ccc3ccccc3c2N1 | 36.2 | 36.1 | 41.6 | 2.5 | 
10 | Cc1ccc([C@@H]2C[C@H]3Cc4ccc5ccccc5c4N2O3)s1 | 10.9 | 498 | > 977 | 11.3 | 
11 | O=C1Cc2cnn(-c3cc(Cl)cc(Cl)c3)c2-c2cc(Br)ccc2N1 |  |  |  |  | IC50 (HeLa): 1.32 µM
12 | O=C(NO)c1ccc(CN2c3ccccc3SC[C@H]3CCCCC[C@H]32)cc1 |  |  |  |  | IC50 [1]: 0.03 µM; IC50 (Histone deacetylase 1): > 30 µM; IC50 (Histone deacetylase 11): 1.2 µM; IC50 [5]: > 30 µM; IC50 (Histone deacetylase 4): > 30 µM; IC50 (Histone deacetylase 5): > 30 µM; IC50 (Histone deacetylase 8): 6.7 µM; IC50 (Histone deacetylase 3): > 30 µM; IC50 (Histone deacetylase 9): > 30 µM
13 | CN1CCN(c2ccc3c(c2)C2CC3CCN2C(=O)OCc2ccc(F)cc2)CC1 (centres undefined) |  |  |  |  | Ki [4]: 0.011 µM
14 | O[C@@H]1Cc2cc(Br)c3ccccc3c2N[C@H](c2ccccc2Cl)C1 | 8.9 | 16 | 11.1 | 11.1 | 
15 | CCN1CCN(c2ccc3c(c2)C2CCN(C(=O)OCc4ccccc4)C3C2)CC1 (centres undefined) |  |  |  |  | Ki [4]: 0.116 µM
16 | O=[N+]([O-])c1ccc([C@@H]2C[C@H]3Cc4ccc5ccccc5c4N2O3)cc1 | 5 | > 903 | > 903 | 8.6 | 
17 | Cc1ccc([C@@H]2C[C@H]3Cc4ccc5ccccc5c4N2O3)o1 | 15.4 | 94.5 | 22.5 | 9.6 | 
18 | Cc1ccccc1[C@@H]1C[C@H](O)Cc2cc(Br)c3ccccc3c2N1 | 7.7 | 113 | 7.1 | 7.1 | 
19 | O=[N+]([O-])c1ccc([C@@H]2C[C@H]3Cc4ccc5ccccc5c4N2O3)o1 | 13.9 | 85.4 | 931 | 8.6 | 
20 | O[C@@H]1Cc2cc(Br)c3ccccc3c2N[C@H](c2cccc(Cl)c2)C1 | 48.2 | 10 | 45.1 | 6.3 | 
21 | O[C@@H]1Cc2cc(Br)c3ccccc3c2N[C@H](c2ccccc2)C1 | 617 | 25.3 | 24 | 12.2 | 
22 | C[C@@H]1[C@H](O)[C@@H](C)/C=C/C=C/C=C/C=C/C=C/C=C/C=C/[C@H](O[C@@H]2O[C@H](C)[C@@H](O)[C@H](N)[C@@H]2O)C[C@@H]2O[C@](O)(C[C@@H](O)C[C@@H](O)[C@H](O)CC[C@@H](O)C[C@@H](O)CC(=O)O[C@H]1C)C[C@H](O)[C@H]2C(=O)O [AMPHOTERICIN B] | 0.01 |  |  |  | 
23 | O=C1Cc2c([nH]c3ccc(Br)cc23)-c2ccccc2N1 [KENPAULLONE] |  |  |  |  | IC50 (HeLa): > 2 µM
24 | CC1CS(=O)(=O)CCN1/N=C/c1ccc([N+](=O)[O-])o1 (centres undefined) [NIFURTIMOX] |  | 67.5 |  |  | 
25 | COC(=O)Nc1nc2cc(C(=O)c3cccs3)ccc2[nH]1 [NOCODAZOLE] |  |  |  |  | IC50 (HeLa): > 2 µM

Reference: ChEMBL document CHEMBL6078616, “Seven-membered N-heterocycles as approved drugs and promising leads in medicinal chemistry as well as the metal-free domino access to their scaffolds” (Eur J Med Chem, 2024)
